In general, CC50 refers to the concentration at which the toxic effect on the cells reaches its halfway point. A higher CC50 goes with better tolerance by the cells. As usually defined, the EC50 is the concentration needed to bring the measured effect to its halfway point.

One series in a line: in vitro. Format: cell-based. The following applies: human, HepG2 or HepG2.117 cells, ATPlite, mean value. A digest of the protocol: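 Luminescent ATP quantitation served as the viability endpoint following a 3- or 4-day incubation with test compounds.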
Background: Cellular ATP, detected with luciferase, serves as a proxy for viable cell number.

Series [1] relates to HBV (HepG2.117 cell line, inducibly HBV producing). As to the kind of experiment: Anti-HBV activity: intracellular HBV DNA by real-time PCR in HepG2.117 cells after 3 days of treatment. The format is cell-based, hepatitis B virus. A digest of the protocol:
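Inducible HBV-producing HepG2.117 line (Tet-off); 3-day exposure to serially diluted compound after induction; real-time PCR of intracellular viral DNA.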

Where [2] appears, read: 3-days incubation (unmarked values).
Where [3] appears, read: Hepatitis B virus, HepG2.117, 72 h, HepG2.117 cells, 3 days of treatment, intracellular HBV DNA by real-time PCR; mean value; read-out: EC50 (μM, mean value).
[4] abbreviates: 3-days incubation (not marked with *).
Where [5] appears, read: Hepatitis B virus, HepG2.117, 72 h, HepG2.117 cells, intracellular HBV DNA by real-time PCR, 3 days of treatment, mean value; read-out: EC50 (μM, mean value).

Read-outs that look alike come from different tables or passages of the source.

For the molecule `CNC(=O)c1cc(-n2c(NC(C)C)nc3c(c2=O)C[C@@H](C)N(C(=O)c2ccc(Cl)c(Cl)c2)C3)n(C)n1` [Compound C354, 5-[(6R)-7-(3,4-dichlorobenzoyl)-6-methyl-4-oxo-2-[(propan-2-yl)amino]-5,6,7,8-tetrahydropyrido[3,4-d]pyrimidin-3(4H)-yl]-N,1-dimethyl-1H-pyrazole-3-carboxamide], the CC50 at 3 days in the series “in vitro” (setting [2]) was over 50 µM. Moreover, the EC50 in series [1] (setting [3]) is 0.16 µM.
For `CNC(=O)c1cc(-n2c(NC(C)C)nc3c(c2=O)C[C@@H](C)N(C(=O)c2ccc(Cl)c(Cl)c2)C3)[nH]n1` [Compound C355, 5-[(6R)-7-(3,4-dichlorobenzoyl)-6-methyl-4-oxo-2-[(propan-2-yl)amino]-5,6,7,8-tetrahydropyrido[3,4-d]pyrimidin-3(4H)-yl]-N-methyl-1H-pyrazole-3-carboxamide], in that order: 34.2 µM and 0.09 µM.
The corresponding values for `CC(C)Nc1nc2c(c(=O)n1-c1ccc(S(C)(=O)=O)cc1)CCN(C(=O)c1ccc3cncn3c1)C2` [Compound C356] are over 50 µM and over 50 µM.
The corresponding values for `CC(C)Nc1nc2c(c(=O)n1-c1ccc(S(C)(=O)=O)cc1)CCN(C(=O)c1nc3ccccc3[nH]1)C2` [Compound C358] are over 50 µM and over 50 µM.
On to `CC(C)Nc1nc2c(c(=O)n1-c1ccc(S(C)(=O)=O)cc1)CCN(C(=O)c1ccc3nccn3c1)C2` [Compound C359], for which the CC50 at 3 days in the series “in vitro” (setting [2]) is over 50 µM. Moreover, the concentration giving a half-maximal response (EC50) in series [1] (setting [3]) is over 50 µM.
For `CC(C)Nc1nc2c(c(=O)n1-c1ccc(S(C)(=O)=O)cc1)CCN(C(=O)C1Cc3ccccc3O1)C2` (centres unmarked) [Compound C360], the CC50 at 3 days in “in vitro” (setting [2]) was over 50 µM. The EC50 in series [1] (setting [3]) was over 50 µM.
Molecule `CC(C)Nc1nc2c(c(=O)n1-c1ccc(S(C)(=O)=O)cc1)CCN(C(=O)c1ccn3cncc3c1)C2` [Compound C361] gave a CC50 at 3 days in “in vitro” (setting [2]) of over 50 µM. For the same molecule, the EC50 in series [1] (setting [3]) was over 50 µM.
In the case of `CC(C)Nc1nc2c(c(=O)n1-c1ccc(S(C)(=O)=O)cc1)CCN(C(=O)c1nc3ccccc3o1)C2` [Compound C362], in the series “in vitro” (setting [2]), the CC50 at 3 days was over 50 µM. Further, in series [1] (setting [3]), the EC50 is over 50 µM.
On to `CC(C)Nc1nc2c(c(=O)n1-c1ccc(S(C)(=O)=O)cc1)CCN(C(=O)c1ccc3ncn(C)c3c1)C2` [Compound C363], for which the CC50 at 3 days in “in vitro” (setting [2]) was over 50 µM. In addition, in series [1] (setting [3]), the EC50 is over 50 µM.
Take `CC(C)Nc1nc2c(c(=O)n1-c1ccc(S(C)(=O)=O)cc1)CCN(C(=O)c1ccc3ocnc3c1)C2` [Compound C364]: the CC50 at 3 days in the series “in vitro” (setting [2]) is over 50 µM. Moreover, the EC50 in series [1] (setting [3]) was over 7.2 µM.
The corresponding values for `CC(C)Nc1nc2c(c(=O)n1-c1ccc(S(C)(=O)=O)cc1)CCN(C(=O)c1ccn3ncnc3c1)C2` [Compound C365] are over 50 µM and over 10 µM.
Molecule `CC(C)Nc1nc2c(c(=O)n1-c1ccc(S(C)(=O)=O)cc1)CCN(C(=O)c1ccc3scnc3c1)C2` [Compound C366] returned a CC50 at 3 days in the series “in vitro” (setting [2]) of over 50 µM. Further, in series [1] (setting [3]), the EC50 was over 10 µM.
In the series “in vitro” (setting [2]), `CC(C)Nc1nc2c(c(=O)n1-c1ccc(S(C)(=O)=O)cc1)CCN(C(=O)c1ccc(C(F)(F)F)nc1)C2` [Compound C367] showed a CC50 at 3 days of over 50 µM. Moreover, the EC50 in series [1] (setting [3]) is over 10 µM.
The corresponding values for `COC(=O)[C@H]1CC[C@H](n2c(NC(C)C)nc3c(c2=O)C[C@@H](C)N(C(=O)c2ccc(Cl)c(Cl)c2)C3)CC1` [Compound C370] are over 50 µM and 0.85 µM.
For `Cc1noc(-c2ccc(-n3c(NC(C)C)nc4c(c3=O)C[C@@H](C)N(C(=O)c3ccc(Cl)c(Cl)c3)C4)cc2)n1` [Compound C371], in that order: over 50 µM and 0.13 µM.
The corresponding values for `CNC(=O)c1ccc(-n2c(NC(C)c3ccnn3C)nc3c(c2=O)C[C@@H](C)N(C(=O)c2ccc(Cl)c(Cl)c2)C3)cc1` (some centres unmarked) [Compound C372] are over 50 µM and 11.7 µM.
Molecule `CNC(=O)c1ccc(-n2c(N3CCC34CCC4)nc3c(c2=O)C[C@@H](C)N(C(=O)c2ccc(Cl)c(Cl)c2)C3)cc1` [Compound C373] displayed a CC50 at 3 days in “in vitro” (setting [2]) of 28.3 µM. For the same molecule, in series [1] (setting [3]), the EC50 came out at 0.71 µM.
For `CNC(=O)c1nnc(-n2c(NC(C)C)nc3c(c2=O)C[C@@H](C)N(C(=O)c2ccc(Cl)c(Cl)c2)C3)[nH]1` [Compound C374], in that order: over 50 µM and 1.49 µM.
The corresponding values for `CNC(=O)c1cc(Cl)c(-n2c(NC(C)C)nc3c(c2=O)C[C@@H](C)N(C(=O)c2ccc(Cl)c(Cl)c2)C3)c(Cl)c1` [Compound C376] are over 50 µM and 0.09 µM.
Turning to `CNC(=O)c1ccc(-n2c(NCc3cccnc3)nc3c(c2=O)C[C@@H](C)N(C(=O)c2ccc(Cl)c(Cl)c2)C3)cc1` [Compound C378], the CC50 at 3 days in “in vitro” (setting [4]) is over 50 µM. For the same molecule, the EC50 in series [1] (setting [5]) stood at 5.73 µM.
The corresponding values for `CNC(=O)c1csc(-n2c(NC(C)C)nc3c(c2=O)C[C@@H](C)N(C(=O)c2ccc(Cl)c(Cl)c2)C3)n1` [Compound C379] are 22.1 µM and 0.22 µM.
The corresponding values for `CNC(=O)c1ccc(-n2c(N[C@@H](C)c3ccc(F)cc3)nc3c(c2=O)C[C@@H](C)N(C(=O)c2ccc(Cl)c(Cl)c2)C3)cc1` [Compound C380] are 15.7 µM and 0.1 µM.
For `CNC(=O)c1ccc(-n2c(NCC3(C)CC3)nc3c(c2=O)C[C@@H](C)N(C(=O)c2ccc(Cl)c(Cl)c2)C3)cc1` [Compound C381], in that order: 31.8 µM and 0.95 µM.
Molecule `CC(C)NC(=O)c1cnc(-n2c(NC(C)C)nc3c(c2=O)C[C@@H](C)N(C(=O)c2ccc(Cl)c(Cl)c2)C3)nc1` [Compound C382] returned a CC50 at 3 days in the series “in vitro” (setting [4]) of over 50 µM. For the same molecule, the EC50 in series [1] (setting [5]) was found to be 0.05 µM.
The corresponding values for `CC(C)Nc1nc2c(c(=O)[nH]1)C[C@@H](C)N(C(=O)c1ccc(Cl)c(Cl)c1)C2` [Compound C384] are over 50 µM and 0.75 µM.
The corresponding values for `CC(C)Nc1nc2c(c(=O)n1-c1ccc(S(C)(=O)=O)c(C(F)F)c1)C[C@@H](C)N(C(=O)c1ccc(Cl)c(Cl)c1)C2` [Compound C385] are over 50 µM and 0.86 µM.
As to `CC(C)Nc1nc2c(c(=O)n1-c1ccc(S(=O)(=O)NC(C)C)cc1)C[C@@H](C)N(C(=O)c1ccc(Cl)c(Cl)c1)C2` [Compound C388], in the series “in vitro” (setting [4]), the cytotoxic concentration (CC50) at 3 days was over 50 µM. The EC50 in series [1] (setting [5]) was determined as 0.62 µM.
The corresponding values for `CNC(=O)c1ccc(-n2c(Nc3ccnn3C)nc3c(c2=O)C[C@@H](C)N(C(=O)c2ccc(Cl)c(Cl)c2)C3)cc1` [Compound C389] are over 50 µM and over 10 µM.
The corresponding values for `CNC(=O)c1ccc(-n2c(N[C@@H](C)C(C)C)nc3c(c2=O)C[C@@H](C)N(C(=O)c2ccc(Cl)c(Cl)c2)C3)cc1` [Compound C390] are 26.5 µM and 0.08 µM.
The corresponding values for `CNC(=O)c1cc(C)c(-n2c(NC(C)C)nc3c(c2=O)C[C@@H](C)N(C(=O)c2ccc(Cl)c(Cl)c2)C3)c(C)c1` [Compound C391] are over 50 µM and 0.18 µM.
`Cc1noc2cc(-n3c(NC(C)C)nc4c(c3=O)C[C@@H](C)N(C(=O)c3ccc(Cl)c(Cl)c3)C4)ccc12` [Compound C395] returned a CC50 at 3 days in “in vitro” (setting [4]) of over 50 µM. Also, the EC50 in series [1] (setting [5]) came to 0.15 µM.
The corresponding values for `CNC(=O)c1ccc(-n2c(NC(C)(C)C3CC3)nc3c(c2=O)C[C@@H](C)N(C(=O)c2ccc(Cl)c(Cl)c2)C3)cc1` [Compound C396] are 39.5 µM and 0.08 µM.
For `CC[C@@H](C)Oc1nc2c(c(=O)n1-c1ccc(C(=O)NC)cc1)C[C@@H](C)N(C(=O)c1ccc(Cl)c(Cl)c1)C2` [Compound C397, 4-(R-2-(R-sec-butoxy)-7-(3,4-dichlorobenzoyl)-6-methyl-4-oxo-5,6,7,8-tetrahydropyrido[3,4-d]pyrimidin-3(4H)-yl)-N-methylbenzamide], in that order: 25.2 µM and 0.05 µM.
For `CC[C@H](C)Oc1nc2c(c(=O)n1-c1ccc(C(=O)NC)cc1)C[C@@H](C)N(C(=O)c1ccc(Cl)c(Cl)c1)C2` [Compound C398], in that order: 25.3 µM and 0.1 µM.
As to `Cc1cc(-c2ncc[nH]2)ccc1-n1c(NC(C)C)nc2c(c1=O)C[C@@H](C)N(C(=O)c1ccc(Cl)c(Cl)c1)C2` [Compound C399], the CC50 at 3 days in “in vitro” (setting [4]) is 25.2 µM. Moreover, the EC50 in series [1] (setting [5]) was determined as 0.24 µM.
For `CC(C)Nc1nc2c(c(=O)n1-c1ccc(S(=O)(=O)Nc3ccccn3)cc1)C[C@@H](C)N(C(=O)c1ccc(Cl)c(Cl)c1)C2` [Compound C400], the CC50 at 3 days in the series “in vitro” (setting [4]) is over 50 µM. Moreover, the EC50 in series [1] (setting [5]) came out at 1.15 µM.
The corresponding values for `CNC(=O)c1ccc(-n2c(OC(C)C)nc3c(c2=O)C[C@@H](C)N(C(=O)c2ccc(Cl)c(Cl)c2)C3)c(Cl)c1` [Compound C403a] are 36.7 µM and 0.06 µM.
The corresponding values for `CC(C)Nc1nc2c(c(=O)n1-c1ccc(-n3cccn3)cc1Cl)C[C@@H](C)N(C(=O)c1ccc(Cl)c(Cl)c1)C2` [Compound C404] are over 50 µM and 0.13 µM.
For `CNC(=O)c1ccc(-n2c(NC(C)(C)c3ccccc3)nc3c(c2=O)C[C@@H](C)N(C(=O)c2ccc(Cl)c(Cl)c2)C3)cc1` [Compound C407], in that order: 18 µM and 0.15 µM.
As for `CNC(=O)c1ccc(-n2c(N3CC4CC3C4)nc3c(c2=O)C[C@@H](C)N(C(=O)c2ccc(Cl)c(Cl)c2)C3)cc1` [Compound C408], the CC50 at 3 days in “in vitro” (setting [4]) was over 50 µM. Moreover, the EC50 in series [1] (setting [5]) worked out at 0.05 µM.
